Test [1] addresses wild-type HIV-1 IN (Human immunodeficiency virus type 1 group M subtype B, UniProt P12497). Put plainly: biochemical. Format: biochemical.
Test [2] has as its target recombinant HIV-1 IN (Human immunodeficiency virus type 1 group M subtype B, UniProt P12497). Put plainly: biochemical. Format: biochemical.

Some results are limits rather than exact numbers.

Experimental findings from publication PMC3612826, “Structural-Functional Analysis of 2,1,3-Benzoxadiazoles and Their N-oxides As HIV-1 Integrase Inhibitors” (Acta Naturae, 2013) are described below.

`[O-][n+]1onc2ccccc21` [Compound 1, unsubstituted BFX]: in test [1], the IC50 was above 1000 µM and the “Inhibitory potential, strand transfer” value is given as “exhibited no inhibitory potential”. Also, in test [2], the IC50 was above 1000 µM and the “Inhibitory potential, 3'-processing” value was “exhibited no inhibitory potential”.

On to `O=[N+]([O-])c1cc([N+](=O)[O-])c2no[n+]([O-])c2c1-[n+]1ccccc1` [Compound 24], for which the results for the IC50 in test [1] and in test [2] were 80 ± 20 µM and 75 ± 15 µM, respectively.

Usually IC50 stands for the concentration needed to halve the response being measured.
